Laboratory results from patent publication US8859819B2, “Sulphurated derivatives of resorcinol, preparation of same and cosmetic uses thereof” (Pierre Fabre Dermo-Cosmetique, priority 2009, dated 2014).
Where two headings read alike, the source gives them in different places.

Key:
[1] = Antioxidant capacity by chemiluminescence (Photochem Analytik Jena); details: for μg of sample for 1 μg of Trolox: Trolox equivalent, lower = stronger antioxidant
Protocol: This test is used to determine the antioxidant capacity of the molecules. It is a method that generates free radicals by a photochemical signal. The intensity of the oxidation is 1000 times greater than that obtained under normal conditions.
The detection is carried out by chemiluminescence. It enables the evaluation of hydrosoluble and liposoluble anti-oxidant molecules or extracts.
The results are expressed respectively in equivalent quantity of vitamin C or Trolox (6-hydroxy-2,5,7,8-tetramethylchroman-2-carboxylic acid). The sensitivity is of the order of a nanomole.
The antioxidant activity studied in this test represents the capacity to trap specifically superoxide anions by chemiluminescence.
The quantified results are expressed in Trolox equivalent (standard), i.e. in “μg of product for 1 μg of Trolox”. This signifies that a quantity×of sample is needed to obtain an activity equivalent to the activity detected for 1 μg of standard. It is an anti-oxidant power relative to a reference, which makes it possible to disregard the concentration tested.
The superoxide radical: 02^0− is generated by a photochemical reaction: L+hv (UV)+O2→L*O2→L^0++O2^0−
A part of the superoxide anions is quenched by the anti-oxidants. The remaining free radicals are quantified by chemiluminescence. L^0++O2^0−→N2+AP*^2−→AP^2−+hv (luminescence)

mushroom tyrosinase = target: T1, mushroom tyrosinase (Agaricus bisporus, UniProt C7FF04); test: Tyrosinase inhibition test (in vitro acellular depigmenting activity); format: biochemical; details: for Tyrosinase depigmenting activity result: class symbol, assay from 250 to 150 μM, overall tyrosinase activity (MPMOg), L-tyrosine substrate
T1 construct: purchased Sigma T-3824
Description: A) Determination of the Depigmenting Activity in an in vitro Acellular Test: Tyrosinase Inhibition Test)
This test is used to evaluate the depigmenting activity of the molecules tested. Tyrosinase is a limiting enzyme in melanogenesis.
It belongs to the family of oxydoreductases. It has in particular the function: monophenol monooxygenase (MPMO) and polyphenol oxidase (PPO).
It is synthesised at the level of the melanocytes. It is activated during its migration towards melanosome […]. It transforms tyrosine into DOPA then dopaquinone, which leads in fine to a polymerisation, i.e. a production of pigments (see diagram below).
The substrate: L-tyrosine, is transformed into L-DOPA by the monophenol mono oxygenase function which is transformed by the polyphenol oxidase function from tyrosinase into dopaquinone. The latter is going to self-oxidise into dopachrome which is measured by spectrophotometry at 490 nm.
More precisely, it is the overall tyrosinase activity (MPMOg) which is measured since it is the dopachrome in fine that is assayed. Thus the products tested on MPMOg (=measurement of the activity on PPO and MPMO) can cumulate the inhibition of the 2 functions, • inhibiting uniquely the MPMO function stricto sensus (transformation of tyrosine into DOPA) as a complement to the PPO test, • could inhibit PPO uniquely. General Experimental Conditions:

B16-F10 cells = test: Melanin assay test in B16-F10 cells; format: cell-based, murine; details: Mus musculus, read-out: B16 activity results -% at X μM
Protocol: B) Melanin Assay Test in B16-F10 Cells:
This involves a test of measuring the synthesis of melanin by colorimetric assay on a murine melanoma cell line: the B16-F10 line. This test makes it possible to evaluate the depigmenting power of active ingredients.
The B16-F10 cells are cultured in 96-well plates in DMEM medium supplemented with FCS (foetal calf serum), and incubated for 24 hours at 37° C., 5% CO2. The cells are then stimulated with 0.1 μM α-MSH (to stimulate the synthesis of melanin, the stimulation observed is around 150%) and treated for 72 hours with the active ingredients to be tested. Each concentration of active ingredient is tested at least in triplicate. The total melanin followed by the intracellular melanin dissolved in the lysis buffer are then assayed by absorbance reading at 405 nm. The total proteins are assayed in the lysate and the results are expressed in mg melanin/mg proteins. The percentage of activity is calculated as follows: […]
A negative value indicates an inhibition, whereas a positive value indicates an induction of the synthesis of melanin.
• B16-F10 cell line between P10 and P20 (murine melanocytes) (ATCC, CRL-6475)
Reagents: • DMEM without phenol red (GibcoBRL, 31053-028), 200 mM Glutamax-I Supplement (GibcoBRL, 35050-038), D-PBS (GibcoBRL, 14190-094), Foetal calf serum (Invitrogen, 10270-098), Trypsine-EDTA (GibcoBRL, 25300-054), NaOH (Sigma, S8045-500G), DMSO (Sigma, 471267-1L), Nle, Phe—Melanocyte Stimulating Hormone (Sigma, M-8764), Melanin (Sigma, M-0418), BCA-Copper (Sigma, B9643 and C2284), BSA (Sigma, P0914) C) Test for the Study of the Antioxidant Capacity by Chemiluminescence (Photochem Analytik Jena) Principle: […]

[2] = Protection of linoleic acid following a UV stress (Fenton conditions, MDA-TBA assay); parameters: % Protection Linoleic acid under UV/Fenton: concentration or dose not given beside the values; details: for % Protection Linoleic acid under UV/Fenton: UV + H2O2 + iron II
Description: D) Test of Protection of Linoleic Acid Following a UV Stress. Target: Protection of Linoleic Acid Under Fenton Conditions, UV Irradiation Linoleic acid belongs to the family of polyunsaturated fatty acids (PUFA) (AGPI). Sensitive to oxidation, linoleic acid is a favoured target for oxygenated free radicals (OFR) in biological media. When biological membranes are exposed to an oxidative stress, the components the most affected are the phospholipids constituted of PUFA and cholesterol. Their degradation leads to lipidic peroxidation and generally to destructuring. Lipidic peroxidation is a self-catalysing process which generally involves OFR. Lipidic peroxidation is in part responsible for skin ageing. The method employed to evaluate lipid peroxidation is based on the coupling of thiobarbituric acid (TBA) and secondary degradation products leading to coloured compounds detectable by spectrofluorometry. The essential secondary compound of final degradation is malondialdehyde, MDA. MDA is a carcinogenic and mutagenic aldehyde, it acts on proteins and DNA. The sample to be tested is placed in contact with linoleic acid in a weight/weight ratio. The sample undergoes an MED (Minimal Erythemal Dose) irradiation under Fenton conditions, namely in the presence of H202 and iron II in a solar simulator. Following irradiation, the reaction mixture is taken up in methanol and derivatised at 90° C. with TBA. Chromogene, the MDA-TBA complex, representative of the equimolar production of MDA is assayed by fluorimetry (excitation at 525 nm, emission at 549 nm). The results are expressed in fluorescence units, as a function of a MDA-TBA control range then expressed as concentration of the MDA-TBA complex. Then, the percentage of the starting MDA/linoleic acid (LA) ratio is determined. Then the percentage of protection of linoleic acid is determined. The product assay is expressed as weight/weight ratio, in other words in weight percentage with respect to the total quantity of linoleic acid. The maximal MDA level is determined by the condition UV+H202+iron II (F). The percentage of protection of linoleic acid represents: the % ratio of MDA under maximal stress conditions untreated over the % of MDA under stress conditions treated by the product.

[3] = monophenol monooxygenase (MPMO) function, reference molecules for the test, read-out: IC 50 (MPMO)
[4] = reference products of the interpretation scale

T1 sequence (C7FF04 1-392 limits assumed): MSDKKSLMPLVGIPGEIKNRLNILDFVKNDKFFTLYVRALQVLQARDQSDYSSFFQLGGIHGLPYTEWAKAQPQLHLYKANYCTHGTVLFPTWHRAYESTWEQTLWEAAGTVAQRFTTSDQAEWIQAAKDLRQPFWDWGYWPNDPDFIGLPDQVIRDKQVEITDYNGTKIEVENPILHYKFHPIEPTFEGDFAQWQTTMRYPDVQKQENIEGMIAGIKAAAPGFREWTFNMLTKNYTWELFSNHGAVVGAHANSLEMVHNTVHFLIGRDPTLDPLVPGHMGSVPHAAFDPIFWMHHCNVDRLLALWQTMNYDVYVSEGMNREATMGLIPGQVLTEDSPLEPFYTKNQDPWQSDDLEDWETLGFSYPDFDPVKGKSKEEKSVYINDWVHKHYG

Compound	μg of sample for 1 μg of Trolox [1]	Tyrosinase depigmenting activity result (mushroom tyrosinase)	% Protection Linoleic acid under UV/Fenton [2] [%]	also measured
CCCCCCCCCCCC(=O)Oc1cc(O)ccc1Sc1ccc(O)cc1O [Example 14, 2-(2,4-dihydroxyphenylthio)-5-hydroxyphenyl dodecanoate]	4.8 μg of sample for 1 μg of Trolox	+ + +		inhibition at 48 µM (B16-F10 cells; B16-F10, 48 μM, α-MSH stimulated, 72 hours, negative value = inhibition): 50%
CCCCCCCCCCOc1cc(O)ccc1[S+]([O-])c1ccc(O)cc1O (stereo not shown) [Example 28, 4-(2-(decyloxy)-4-hydroxyphenylsulphinyl)benzene-1,3-diol]	28 μg of sample for 1 μg of Trolox		94	
Oc1ccc(O)cc1 [Hydroquinone, reference compound]				IC50 (mushroom tyrosinase; [3]): 3 to 4 µM
CCCCCCCC(=O)Oc1ccc(Sc2ccc(O)cc2O)c(O)c1 [Example 16, 4-(2,4-dihydroxyphenylthio)-3-hydroxyphenyl octanoate]	33.2 μg of sample for 1 μg of Trolox	+ + +	91	
O=C(O)CCCC[C@@H]1CCSS1 (racemic) [Lipoic acid, reference compound]				Activity (antioxidant, interpretation scale) [1, 4]: None; μg of sample for 1 μg of Trolox (scale for interpreting the results, reference products) [1, 4]: NEGATIVE
O=c1c(O)c(-c2ccc(O)c(O)c2)oc2cc(O)cc(O)c12 [quercetin, reference compound]				protection of linoleic acid ([2]; positive control at 0.1% (weight/weight of linoleic acid)): around 50%; protection of linoleic acid ([2]; positive control at 1% (weight/weight of linoleic acid)): almost total protection
CCCCCCCCCCOc1cc(O)ccc1S(=O)(=O)c1ccc(O)cc1O [Example 30, 4-(2-(decyloxy)-4-hydroxyphenylsulphonyl)benzene-1,3-diol]	147 μg of sample for 1 μg of Trolox		34	
O=S(=O)(c1ccc(O)cc1O)c1ccc(O)cc1O [Example 29, 4,4′-sulphonyldibenzene-1,3-diol]	301 μg of sample for 1 μg of Trolox		25	μg of sample for 1 μg of Trolox ([1]; listed as resorcinol sulphone): 301 μg of sample for 1 μg of Trolo
N[C@@H](CCC(=O)N[C@@H](CS)C(=O)NCC(=O)O)C(=O)O [Reduced glutathion, reference compound]				% inhibition (PPO) (mushroom tyrosinase; at 25 μM, PPO function): 55%; IC50 (mushroom tyrosinase; [3]): 1 to 2 µM
COc1ccc(/C=C/C(=O)Oc2cc(O)ccc2Sc2ccc(O)cc2O)cc1OC [Example 23, (E)-2-(2,4-dihydroxyphenylthio)-5-hydroxyphenyl 3-(3,4-dimethoxyphenyl)acrylate]	2.8 μg of sample for 1 μg of Trolox	+ + +	96	
N[C@@H](CS)C(=O)O [Cysteine, reference compound]				Activity (antioxidant, interpretation scale) [1, 4]: Medium (50.1 to 1000)
CCCCCCCCCCCC(=O)Oc1cc(O)ccc1[S+]([O-])c1ccc(O)cc1O (stereo not shown) [Example 26, 2-(2,4-dihydroxyphenylsulphinyl)-5-hydroxyphenyl dodecanoate]	69 μg of sample for 1 μg of Trolox		80	
Cc1cc(C(C)(C)C)c(O)c(C(C)(C)C)c1 [BHT, reference compound]				Activity (antioxidant, interpretation scale) [1, 4]: Good (3.01 to 50)
OC[C@H]1O[C@@H](Oc2ccc(O)cc2)[C@H](O)[C@@H](O)[C@@H]1O [Arbutin, reference compound]				inhibition at 88 µM (mushroom tyrosinase; at 88 μM, MPMO function): 57%
CCCCC/C=C\C/C=C\CCCCCCCC(=O)Oc1cc(O)ccc1Sc1ccc(O)cc1O [Example 21, (9Z, 12Z)-2-(2,4-dihydroxyphenylthio)-5-hydroxyphenyl octadeca-9,12-dienoate]	5.9 μg of sample for 1 μg of Trolox	+ + +		IC50 (mushroom tyrosinase): 11 µM; inhibition at 32 µM (B16-F10 cells; B16-F10, 32 μM, α-MSH stimulated, 72 hours, negative value = inhibition): 50%
CCCCC/C=C\C/C=C\CCCCCCCC(=O)Oc1cc(O)ccc1[S+]([O-])c1ccc(O)cc1O (stereo not shown) [Example 27, (9Z,12Z)-2-(2,4-dihydroxyphenylsulphinyl)-5-hydroxyphenyl octadeca-9,12-dienoate]	40 μg of sample for 1 μg of Trolox		78	
CCCCOc1ccc(Sc2ccc(O)cc2O)c(O)c1 [Example 6, 4-(4-butoxy-2-hydroxyphenylthio)benzene-1,3-diol]	14.9 μg of sample for 1 μg of Trolox	+ + +		inhibition at 20 µM (B16-F10 cells; B16-F10, 72 h): 30%
COc1ccc(/C=C/C(=O)Oc2cc(O)ccc2Sc2ccc(O)cc2O)cc1 [Example 22, (E)-2-(2,4-dihydroxyphenylthio)-5-hydroxyphenyl 3-(4-metoxyphenyl)acrylate]	2.5 μg of sample for 1 μg of Trolox	+ + +	97	
